Data reported in PubChem BioAssay AID1918945 (Molecular Pharmacology Branch, DTP, NCI, 2023).

Test system: 883617-216-R-J1-PDC complex spheroid viability
Assay: Anticancer human tumor 883617-216-R-J1-PDC patient-derived bladder carcinoma cell line growth inhibition
Conditions: for IC50: curve of first compound; for viability, T/C: stronger effect = lower value
Method in brief: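 Complex spheroids of tumor cells with HUVEC and human MSCs, exposed to iadademstat combined with other agents. Each agent tested in half-log steps from near clinical Cmax (else 10 microM top), DMSO ≤0.25%.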

[1] = second compound 0.1 µM, first compound 0.00316 µM
[2] = second compound 0.1 µM, first compound 0.01 µM
[3] = second compound 0.1 µM, first compound 0.0316 µM
[4] = second compound 0.1 µM, first compound 0.1 µM
[5] = second compound 0.316 µM, first compound 0.00316 µM
[6] = second compound 0.316 µM, first compound 0.01 µM
[7] = second compound 0.316 µM, first compound 0.0316 µM
[8] = second compound 0.316 µM, first compound 0.1 µM
[9] = second compound 1 µM, first compound 0.00316 µM
[10] = second compound 1 µM, first compound 0.01 µM
[11] = second compound 1 µM, first compound 0.0316 µM
[12] = second compound 1 µM, first compound 0.1 µM
[13] = second compound 3.16 µM, first compound 0.00316 µM
[14] = second compound 3.16 µM, first compound 0.01 µM
[15] = second compound 3.16 µM, first compound 0.0316 µM
[16] = second compound 3.16 µM, first compound 0.1 µM
[17] = second compound 10 µM, first compound 0.00316 µM
[18] = second compound 10 µM, first compound 0.01 µM
[19] = second compound 10 µM, first compound 0.0316 µM
[20] = second compound 10 µM, first compound 0.1 µM
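Note: exposure lasted seven days after three days of spheroid growth.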
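Throughout, for viability, T/C: 100% = DMSO vehicle control luminescence.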

| Structure (SMILES) | IC50 (second compound 0.1 µM) | IC50 (second compound 0.316 µM) | IC50 (second compound 1 µM) | IC50 (second compound 3.16 µM) | IC50 (second compound 10 µM) | viability, T/C [1] | viability, T/C [2] | viability, T/C [3] | viability, T/C [4] | viability, T/C [5] | viability, T/C [6] | viability, T/C [7] | viability, T/C [8] | viability, T/C [9] | viability, T/C [10] | viability, T/C [11] | viability, T/C [12] | viability, T/C [13] | viability, T/C [14] | viability, T/C [15] | further results |
| --- | --- | --- | --- | --- | --- | --- | --- | --- | --- | --- | --- | --- | --- | --- | --- | --- | --- | --- | --- | --- | --- |
| CC(C)CC(NC(=O)CNC(=O)c1cc(Cl)ccc1Cl)B1OC(=O)CC(CC(=O)O)(C(=O)O)O1 (stereo not given) + NC1CCC(NC2CC2c2ccccc2)CC1 | 6.36 nM | 7.23 nM | 6.46 nM | 6.58 nM | 6.38 nM | 74.7% | 32.5% | 11.9% | 1.23% | 86.4% | 34.8% | 11.1% | 0.94% | 83% | 29% | 10.3% | 0.98% | 75.8% | 34.5% | 9.37% | viability, T/C (second compound 0.1 µM, first compound 0.000316 µM): 101%; viability, T/C (second compound 0.1 µM, first compound 0.001 µM): 112%; viability, T/C (second compound 0.316 µM, first compound 0.000316 µM): 108%; viability, T/C (second compound 0.316 µM, first compound 0.001 µM): 110%; viability, T/C (second compound 1 µM, first compound 0.000316 µM): 101%; viability, T/C (second compound 1 µM, first compound 0.001 µM): 107%; viability, T/C (second compound 3.16 µM, first compound 0.000316 µM): 101%; viability, T/C (second compound 3.16 µM, first compound 0.001 µM): 108%; viability, T/C [16]: 1.62%; viability, T/C (second compound 10 µM, first compound 0.000316 µM): 111%; viability, T/C (second compound 10 µM, first compound 0.001 µM): 106%; viability, T/C [17]: 79%; viability, T/C [18]: 31.8%; viability, T/C [19]: 4.25%; viability, T/C [20]: 0.93% |
| Nc1ncn(C2CC(O)C(CO)O2)c(=O)n1 (stereo not given) + NC1CC1c1ccc(-c2cccc(O)c2)cc1 | > 1000 nM | > 1000 nM | > 1000 nM | > 1000 nM | > 1000 nM | 104% | 101% | 87.3% | 75.2% | 110% | 108% | 87.5% | 76.5% | 110% | 122% | 96.8% | 83% | 107% | 114% | 92.9% | viability, T/C (second compound 0.1 µM, first compound 0.316 µM): 64.7%; viability, T/C (second compound 0.1 µM, first compound 1 µM): 56.8%; viability, T/C (second compound 0.316 µM, first compound 0.316 µM): 67.7%; viability, T/C (second compound 0.316 µM, first compound 1 µM): 65.1%; viability, T/C (second compound 1 µM, first compound 0.316 µM): 65.9%; viability, T/C (second compound 1 µM, first compound 1 µM): 56.1%; viability, T/C [16]: 74.8%; viability, T/C (second compound 3.16 µM, first compound 0.316 µM): 60.5%; viability, T/C (second compound 3.16 µM, first compound 1 µM): 51.8%; viability, T/C [17]: 107%; viability, T/C [18]: 86.5%; viability, T/C [19]: 74%; viability, T/C [20]: 64.5%; viability, T/C (second compound 10 µM, first compound 0.316 µM): 61.7%; viability, T/C (second compound 10 µM, first compound 1 µM): 52.1% |
